Experimental data from US7868204B2, “Inhibitors of histone deacetylase” (MethylGene Inc., priority 2001, dated 2011).
Read-outs that look alike come from different tables or passages of the source.

How the values were obtained:
[1] = tested on: acetylated histone H-4 in T24 human bladder cancer cells; experiment: Histone H4 acetylation in whole cells by immunoblots; format: cell-based; details: 16 h
Procedure: T24 human bladder cancer cells growing in culture were incubated with HDAC inhibitors for 16 h. […] of total histone protein was loaded onto SDS/PAGE and transferred to nitrocellulose membranes. Membranes were probed with polyclonal antibodies specific for acetylated histone H-4 (Upstate Biotech Inc.), followed by horse radish peroxidase conjugated secondary antibodies (Sigma). Enhanced Chemiluminescence (ECL) (Amersham) detection was performed using Kodak films (Eastman Kodak). Acetylated H-4 signal was quantified by densitometry.

[2] = target: T1, cloned recombinant human HDAC-1 (Homo sapiens, UniProt Q13547); experiment: Human HDAC-1 enzyme inhibition, Assay 1 ([3H]-acetylated histone substrate, scintillation counting); format: biochemical; details: read-out: Human HDAC-1 IC50
T1 construct: made in house; host or cells: Baculovirus insect cell expression system
T1 sequence (Q13547 whole entry): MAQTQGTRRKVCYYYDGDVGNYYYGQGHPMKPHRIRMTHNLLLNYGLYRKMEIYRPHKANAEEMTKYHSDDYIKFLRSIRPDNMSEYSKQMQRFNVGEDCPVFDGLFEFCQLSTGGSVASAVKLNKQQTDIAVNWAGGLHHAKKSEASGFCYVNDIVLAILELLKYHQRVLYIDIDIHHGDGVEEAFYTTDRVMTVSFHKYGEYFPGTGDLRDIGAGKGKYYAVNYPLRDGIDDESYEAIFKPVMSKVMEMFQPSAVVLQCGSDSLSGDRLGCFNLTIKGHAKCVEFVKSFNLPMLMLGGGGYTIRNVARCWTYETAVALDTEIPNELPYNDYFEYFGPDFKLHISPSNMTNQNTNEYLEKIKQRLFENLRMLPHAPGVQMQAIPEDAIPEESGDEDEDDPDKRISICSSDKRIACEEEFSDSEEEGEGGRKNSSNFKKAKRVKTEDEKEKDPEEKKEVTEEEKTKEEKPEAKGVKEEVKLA
Outline: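 Activity read as [3H]-acetic acid liberated from labeled substrate, ethyl acetate-extracted and scintillation-counted. Compounds preincubated 30 min at 4° C. with baculovirus-expressed, purified human HDAC-1. Dose-response curves give IC50 as concentration producing fifty percent of maximal inhibition.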

HCT116 cells = experiment: MTT assay; format: cell-based; details: Homo sapiens, HCT116 cells, 72 hours
Outline: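 Read-out: MTT (0.5 mg/ml final, 4 h) after solubilization in 50% DMF/20% SDS, pH 4.7, with OD translated into cell number via the line's growth curve. Compound treatment lasted 72 h at 37 °C in 5% CO2, starting a day after plating.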

[3] = T-24, Table 5F, read-out: H4 Ac (T24) EC50
[4] = T-24, Table 5c, read-out: H4Ac (T24) EC50
[5] = T-24, Table 5d, read-out: H4Ac(T24) EC50

Nc1ccccc1NC(=O)c1ccc(CNc2nc3cc(Cl)ccc3o2)cc1 [Cpd 320, N-(2-Amino-phenyl)-4-[(5-chloro-benzooxazol-2-ylamino)-methyl]-benzamide]
EC50 [1, 3]: 1000 nM | IC50 ([2]; Table 5F): 2000 nM

Nc1ccccc1NC(=O)c1ccc(CNc2nc(Cl)cc(N3CCOCC3)n2)cc1 [Cpd 411, N-(2-Amino-phenyl)-4-[(4-chloro-6-morpholin-4-yl-pyrimidin-2-ylamino)-methyl]-benzamide]
EC50 [1, 3]: 1000 nM | IC50 ([2]; Table 5F): 2000 nM

COc1ccc(NCc2ccc(C(=O)Nc3ccccc3N)cc2)cc1OC [Cpd 424b]
EC50 [1, 3]: 1000 nM | IC50 (HCT116 cells; HCT-116, 72 h, Table 5F): 400 nM

Nc1nc(Nc2ccc(C(=O)Nc3ccccc3N)cc2)nc(NC2Cc3ccccc3C2)n1 [Cpd 204]
EC50 ([1]; T-24, Table 5b, read-out: H4Ac (T24) EC50): 5000 nM | IC50 ([2]; Table 5b): 4000 nM

COc1cc(N(C)Cc2ccc(/C=C/C(=O)Nc3ccccc3N)cc2)cc(OC)c1OC [Cpd 108]
EC50 [1, 4]: 5000 nM | IC50 (HCT116 cells; HCT-116, 72 h, Table 5c): 5000 nM

CN(C)c1ccc(CNc2ccc(/C=C/C(=O)Nc3ccccc3N)cn2)cc1 [Cpd 96, N-(2-aminophenyl)-3-[6-(4-dimethylamino-benzylamino)-pyridin-3-yl]-acrylamide]
EC50 [1, 4]: 25000 nM | IC50 (HCT116 cells; HCT-116, 72 h, Table 5c): 3000 nM

COc1ccc(NCc2ccc(C(=O)Nc3ccccc3O)cc2)cc1OC [Cpd 572, N-(2-hydroxy-phenyl)-4-[(3,4-Dimethoxy-phenylamino)-methyl]-benzamide]
EC50 [1, 3]: 5000 nM | IC50 (HCT116 cells; HCT-116, 72 h, Table 5F): 5000 nM

COc1ccc(NCc2ccc(C(=O)Nc3ccccc3N)cc2)cc1 [Cpd 427, N-(2-Amino-phenyl)-4-[(4-methoxy-phenylamino)-methyl]-benzamide]
EC50 [1, 3]: 1000 nM | IC50 (HCT116 cells; HCT-116, 72 h, Table 5F): 2000 nM

Nc1ccccc1NC(=O)/C=C/c1ccc(NCc2ccc(OC(F)(F)F)cc2)nc1 [Cpd 99, N-(2-aminophenyl)-3-[6-(4-trifluoromethoxy-benzylamino)-pyridin-3-yl]-acrylamide]
EC50 [1, 4]: 10000 nM | IC50 (HCT116 cells; HCT-116, 72 h, Table 5c): 5000 nM

Nc1ccccc1NC(=O)/C=C/c1ccc(NCc2ccccc2)nc1 [Cpd 93, N-(2-aminophenyl)-3-(6-benzylamino-pyridin-3-yl)-acrylamide]
EC50 [1, 4]: 5000 nM | IC50 (HCT116 cells; HCT-116, 72 h, Table 5c): 1000 nM

COc1cc(CNc2ccc(/C=C/C(=O)Nc3ccccc3N)cn2)cc(OC)c1OC [Cpd 116, N-(2-aminophenyl)-3-[6-(3,4,5-trimethoxy-benzylamino)-pyridin-3-yl]-acrylamide]
EC50 [1, 4]: 5000 nM | IC50 (HCT116 cells; HCT-116, 72 h, Table 5c): 2000 nM

Nc1ccccc1NC(=O)/C=C/c1ccc(NCCCc2ccccc2)nc1 [Cpd 94, N-(2-aminophenyl)-3-[6-(3-phenyl-propylamino)-pyridin-3-yl]-acrylamide]
EC50 [1, 4]: 5000 nM | IC50 (HCT116 cells; HCT-116, 72 h, Table 5c): 2000 nM

COc1cc(-c2ccc3sc(NCc4ccc(C(=O)Nc5ccccc5N)cc4)nc3c2)cc(OC)c1OC [Cpd 231]
EC50 [1, 3]: 3000 nM | IC50 ([2]; Table 5F): 4000 nM

Nc1ccccc1NC(=O)/C=C/c1ccc(NCc2ccc(F)cc2)nc1 [Cpd 92, N-(2-aminophenyl)-3-[6-(4-fluoro-benzylamino)-pyridin-3-yl]-acrylamide]
EC50 [1, 4]: 3000 nM | IC50 (HCT116 cells; HCT-116, 72 h, Table 5c): 2000 nM

COc1ccc(NCc2ccc(/C=C/C(=O)Nc3ccccc3N)cc2)cc1OC [Cpd 542, N-(2-Amino-phenyl)-3-{4-[(3,4-dimethoxy-phenylamino)-methyl]-phenyl}-acrylamide]
EC50 [1, 5]: 4000 nM | IC50 (HCT116 cells; HCT-116, Table 5d): 5000 nM

COc1ccc(CNc2ccc(C(=O)Nc3ccccc3N)cc2)cc1OC [Cpd 434, N-(2-Amino-phenyl)-4-(3,4-dimethoxy-benzylamino)-benzamide]
EC50 [1, 3]: 2000 nM | IC50 (HCT116 cells; HCT-116, 72 h, Table 5F): 600 nM

COc1cc(CNc2ccc(C(=O)Nc3ccccc3N)cn2)cc(OC)c1OC [Cpd 176]
EC50 ([1]; T-24, Table 5E, read-out: H4 Ac (T24) EC50): 3000 nM | IC50 (HCT116 cells; HCT-116, 72 h, Table 5E): 1000 nM

COc1cc(NCc2ccc(/C=C/C(=O)Nc3ccccc3N)cn2)cc(OC)c1OC [Cpd 512, N-(2-Amino-phenyl)-3-{6-[(3,4,5-trimethoxy-phenylamino)-methyl]-pyridin-3-yl}-acrylamide]
EC50 [1, 5]: 5000 nM | IC50 (HCT116 cells; HCT-116, Table 5d): 3000 nM

Nc1ccccc1NC(=O)/C=C/c1ccc(NCc2ccncc2)nc1 [Cpd 91]
EC50 [1, 4]: 5000 nM | IC50 (HCT116 cells; HCT-116, 72 h, Table 5c): 7000 nM
